Measurements reported in the supplement of paper PMC10307832.

Legend:
Assay in all cases: relative viability (nuclei count vs DMSO), 5 days (fraction); higher = more cells survive
EMC-BAC-2 = tested on: EMC-BAC-2
Summary of the method: (§1)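 Nuclei were stained with Hoechst during a one-step fixation (final 0.05% Triton X-100, 1% formaldehyde, 1 ug/ml Hoechst) carried out 5 days after dosing, then counted on 4× images. The cells, lung cancer lines in 1536-well plates, had been dosed by pin tool the day after seeding with one drug alone or a fixed anchor-drug dose plus five library-drug doses (not always all listed) in √10 steps. Relative viability is the nuclei count in treated wells divided by that in vehicle wells, and each value is the median of duplicate plates.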

NCI-H1944 = tested on: NCI-H1944
Summary of the method: as §1

NCI-H2170 = tested on: NCI-H2170
Summary of the method: as §1

NCI-H647 = tested on: NCI-H647
Summary of the method: as §1

NCI-H1755 = tested on: NCI-H1755
Summary of the method: as §1

NCI-H727 = tested on: NCI-H727
Summary of the method: as §1

NCI-H1355 = tested on: NCI-H1355
Summary of the method: as §1

PC-3 [JPC-3] = tested on: PC-3 [JPC-3]
Summary of the method: as §1

ABC-1 = tested on: ABC-1
Summary of the method: as §1

SW 1573 = tested on: SW 1573
Summary of the method: as §1

NCI-H520 = tested on: NCI-H520
Summary of the method: as §1

LCLC-97TM1 = tested on: LCLC-97TM1
Summary of the method: as §1

NCI-H2347 = tested on: NCI-H2347
Summary of the method: as §1

PC-14 = tested on: PC-14
Summary of the method: as §1

NCI-H1666 = tested on: NCI-H1666
Summary of the method: as §1

SK-LU-1 = tested on: SK-LU-1
Summary of the method: as §1

NCI-H2126 = tested on: NCI-H2126
Summary of the method: as §1

NCI-H1993 = tested on: NCI-H1993
Summary of the method: as §1

NCI-H2009 = tested on: NCI-H2009
Summary of the method: as §1

NCI-H460 = tested on: NCI-H460
Summary of the method: as §1

NCI-H1975 = tested on: NCI-H1975
Summary of the method: as §1

NCI-H1793 = tested on: NCI-H1793
Summary of the method: as §1

NCI-H441 = tested on: NCI-H441
Summary of the method: as §1

## O=c1[nH]c2ccccc2n1C1CCN(CCCC(c2ccc(F)cc2)c2ccc(F)cc2)CC1 [Pimozide] + O=C(c1cc(Cc2n[nH]c(=O)c3ccccc23)ccc1F)N1CCN(C(=O)C2CC2)CC1 [Olaparib] (partner 8 µM)
EMC-BAC-2; first compound 0.08 µM
  relative viability: 0.506
EMC-BAC-2; first compound 0.253 µM
  relative viability: 0.463
EMC-BAC-2; first compound 0.8 µM
  relative viability: 0.455
EMC-BAC-2; first compound 2.53 µM
  relative viability: 0.456
EMC-BAC-2; first compound 8 µM
  relative viability: 0.448
NCI-H1944; first compound 0.08 µM
  relative viability: 0.427
NCI-H1944; first compound 2.53 µM
  relative viability: 0.35
NCI-H1944; first compound 8 µM
  relative viability: 0.413
NCI-H2170; first compound 0.08 µM
  relative viability: 0.592
NCI-H2170; first compound 0.253 µM
  relative viability: 0.554
NCI-H2170; first compound 0.8 µM
  relative viability: 0.608
NCI-H2170; first compound 2.53 µM
  relative viability: 0.593
NCI-H2170; first compound 8 µM
  relative viability: 0.543
NCI-H647; first compound 0.08 µM
  relative viability: 0.562
NCI-H647; first compound 0.253 µM
  relative viability: 0.503
NCI-H647; first compound 0.8 µM
  relative viability: 0.391
NCI-H647; first compound 2.53 µM
  relative viability: 0.495
NCI-H647; first compound 8 µM
  relative viability: 0.28
NCI-H1755; first compound 0.08 µM
  relative viability: 0.879
NCI-H1755; first compound 0.253 µM
  relative viability: 0.842
NCI-H1755; first compound 0.8 µM
  relative viability: 0.845
NCI-H1755; first compound 2.53 µM
  relative viability: 0.825
NCI-H1755; first compound 8 µM
  relative viability: 0.776
NCI-H727; first compound 0.08 µM
  relative viability: 0.731
NCI-H727; first compound 0.253 µM
  relative viability: 0.674
NCI-H727; first compound 0.8 µM
  relative viability: 0.725
NCI-H727; first compound 2.53 µM
  relative viability: 0.549
NCI-H727; first compound 8 µM
  relative viability: 0.739
NCI-H1355; first compound 0.08 µM
  relative viability: 0.717
NCI-H1355; first compound 0.253 µM
  relative viability: 0.677
NCI-H1355; first compound 0.8 µM
  relative viability: 0.675
NCI-H1355; first compound 2.53 µM
  relative viability: 0.758
NCI-H1355; first compound 8 µM
  relative viability: 0.689
PC-3 [JPC-3]; first compound 0.253 µM
  relative viability: 1.09
PC-3 [JPC-3]; first compound 0.8 µM
  relative viability: 1.1
PC-3 [JPC-3]; first compound 2.53 µM
  relative viability: 1.08
PC-3 [JPC-3]; first compound 8 µM
  relative viability: 1
ABC-1; first compound 0.08 µM
  relative viability: 0.782
ABC-1; first compound 0.253 µM
  relative viability: 0.975
ABC-1; first compound 0.8 µM
  relative viability: 1.21
ABC-1; first compound 2.53 µM
  relative viability: 0.618
ABC-1; first compound 8 µM
  relative viability: 0.477
SW 1573; first compound 0.08 µM
  relative viability: 0.457
SW 1573; first compound 0.253 µM
  relative viability: 0.442
SW 1573; first compound 0.8 µM
  relative viability: 0.448
SW 1573; first compound 2.53 µM
  relative viability: 0.38
SW 1573; first compound 8 µM
  relative viability: 0.391
NCI-H520; first compound 0.08 µM
  relative viability: 0.33
NCI-H520; first compound 0.253 µM
  relative viability: 0.345
NCI-H520; first compound 0.8 µM
  relative viability: 0.266
NCI-H520; first compound 2.53 µM
  relative viability: 0.312
NCI-H520; first compound 8 µM
  relative viability: 0.276
LCLC-97TM1; first compound 0.08 µM
  relative viability: 0.387
LCLC-97TM1; first compound 0.253 µM
  relative viability: 0.314
LCLC-97TM1; first compound 0.8 µM
  relative viability: 0.404
LCLC-97TM1; first compound 2.53 µM
  relative viability: 0.222
LCLC-97TM1; first compound 8 µM
  relative viability: 0.269
NCI-H2347; first compound 0.08 µM
  relative viability: 0.663
NCI-H2347; first compound 0.253 µM
  relative viability: 0.556
NCI-H2347; first compound 0.8 µM
  relative viability: 0.577
NCI-H2347; first compound 2.53 µM
  relative viability: 0.519
NCI-H2347; first compound 8 µM
  relative viability: 0.587
PC-14; first compound 0.253 µM
  relative viability: 0.276
PC-14; first compound 0.8 µM
  relative viability: 0.225
PC-14; first compound 2.53 µM
  relative viability: 0.215
PC-14; first compound 8 µM
  relative viability: 0.209
NCI-H1666; first compound 0.08 µM
  relative viability: 0.708
NCI-H1666; first compound 0.253 µM
  relative viability: 0.737
NCI-H1666; first compound 0.8 µM
  relative viability: 0.787
NCI-H1666; first compound 2.53 µM
  relative viability: 0.756
NCI-H1666; first compound 8 µM
  relative viability: 0.754
SK-LU-1; first compound 0.08 µM
  relative viability: 0.497
SK-LU-1; first compound 0.253 µM
  relative viability: 0.485
SK-LU-1; first compound 0.8 µM
  relative viability: 0.487
SK-LU-1; first compound 2.53 µM
  relative viability: 0.372
SK-LU-1; first compound 8 µM
  relative viability: 0.383
NCI-H2126; first compound 0.08 µM
  relative viability: 0.922
NCI-H2126; first compound 0.253 µM
  relative viability: 0.89
NCI-H2126; first compound 0.8 µM
  relative viability: 0.944
NCI-H2126; first compound 2.53 µM
  relative viability: 0.92
NCI-H2126; first compound 8 µM
  relative viability: 0.858
NCI-H1993; first compound 0.08 µM
  relative viability: 0.95
NCI-H1993; first compound 0.253 µM
  relative viability: 1.12
NCI-H1993; first compound 0.8 µM
  relative viability: 0.918
NCI-H1993; first compound 2.53 µM
  relative viability: 1.05
NCI-H1993; first compound 8 µM
  relative viability: 1.13
NCI-H2009; first compound 0.08 µM
  relative viability: 0.761
NCI-H2009; first compound 0.253 µM
  relative viability: 0.649
NCI-H2009; first compound 0.8 µM
  relative viability: 0.769
NCI-H2009; first compound 2.53 µM
  relative viability: 0.683
NCI-H2009; first compound 8 µM
  relative viability: 0.629
NCI-H460; first compound 0.08 µM
  relative viability: 0.499
NCI-H460; first compound 0.253 µM
  relative viability: 0.48
NCI-H460; first compound 0.8 µM
  relative viability: 0.394
NCI-H460; first compound 2.53 µM
  relative viability: 0.361
NCI-H460; first compound 8 µM
  relative viability: 0.398
NCI-H1975; first compound 0.08 µM
  relative viability: 0.934
NCI-H1975; first compound 0.253 µM
  relative viability: 0.782
NCI-H1975; first compound 0.8 µM
  relative viability: 0.858
NCI-H1975; first compound 2.53 µM
  relative viability: 0.75
NCI-H1975; first compound 8 µM
  relative viability: 0.625
NCI-H1793; first compound 0.08 µM
  relative viability: 0.762
NCI-H1793; first compound 0.253 µM
  relative viability: 0.826
NCI-H1793; first compound 0.8 µM
  relative viability: 0.875
NCI-H1793; first compound 2.53 µM
  relative viability: 0.772
NCI-H1793; first compound 8 µM
  relative viability: 0.706
NCI-H441; first compound 0.08 µM
  relative viability: 0.641
NCI-H441; first compound 0.253 µM
  relative viability: 0.593
NCI-H441; first compound 0.8 µM
  relative viability: 0.506
NCI-H441; first compound 2.53 µM
  relative viability: 0.416
NCI-H441; first compound 8 µM
  relative viability: 0.57
